We go through one molecule from patent US6498247B2, “Alkali or alkaline earth metal of n-butyric acid for treatment of cognitive and emotional conditions” (Pro-Health, Inc., priority 2000, dated 2002).

The structures appear in SMILES notation.

The nature of this data set: Case report: subject, under treatment for uneasiness, short temper and prolonged anger. The data set is classed as in vivo, human. The conditions noted are these: while taking welbutrin, before the butyrate. An excerpt:
A subject was under treatment for uneasiness, short temper and prolonged anger, and was taking welbutrin.

Regarding `CC(NC(C)(C)C)C(=O)c1cccc(Cl)c1` (stereo not shown) [welbutrin, 1-(3-chlorophenyl)-2-[(1,1-dimethylethyl)amino]-1-propanone], the “side effects suffered under prior treatment” value was “stomach discomfort, memory deficiency and reduced clarity of thought”.
